Experimental data from publication PMC3022706 (BMC Microbiology, 2010).

T1: Dld (Cg1027), quinone-dependent D-lactate dehydrogenase (Corynebacterium glutamicum, UniProt Q8NRY8)
T1 construct: PCR fragment printed as 1,020 bp but gene coordinates 955683-957398 imply 571 residues; reverse primer dld2 lacks stop codon; abstract also misprints Cg1067
T1 sequence (Q8NRY8 1-571): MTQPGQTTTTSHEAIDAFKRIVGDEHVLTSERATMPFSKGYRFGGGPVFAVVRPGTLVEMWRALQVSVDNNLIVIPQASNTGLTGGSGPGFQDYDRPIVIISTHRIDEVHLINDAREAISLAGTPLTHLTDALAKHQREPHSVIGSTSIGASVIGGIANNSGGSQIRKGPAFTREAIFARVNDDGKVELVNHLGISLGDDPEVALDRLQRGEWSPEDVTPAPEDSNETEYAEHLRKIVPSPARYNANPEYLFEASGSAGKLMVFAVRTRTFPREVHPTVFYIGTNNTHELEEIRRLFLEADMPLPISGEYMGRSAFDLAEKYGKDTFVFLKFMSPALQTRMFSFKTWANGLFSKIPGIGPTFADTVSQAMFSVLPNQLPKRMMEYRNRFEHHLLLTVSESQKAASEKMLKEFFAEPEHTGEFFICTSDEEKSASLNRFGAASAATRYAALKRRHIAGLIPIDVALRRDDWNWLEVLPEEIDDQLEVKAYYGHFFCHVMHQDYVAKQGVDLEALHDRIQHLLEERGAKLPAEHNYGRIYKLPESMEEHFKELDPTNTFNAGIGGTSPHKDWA


Legend:
[1] = target: T1, Dld (Cg1027), quinone-dependent D-lactate dehydrogenase; test: absorption spectrum of purified protein ([…] and […] nm); type: binding; details: bound cofactor, co-purified; non-covalent; identified from spectrum and FAD domain
purified protein = substrate: C[C@@H](O)C(=O)O; test: purified protein; details: 2,6-dichloroindophenol as electron acceptor, 30 °C, potassium phosphate, pH optimum 7.0, Discussion prints 0.62 mM

Row | Molecule | absorption spectrum of purified protein (375 and 445 nm) [1] | Km (purified protein) [µM]
1 | Cc1cc2nc3c(=O)[nH]c(=O)nc-3n(C[C@H](O)[C@H](O)[C@H](O)COP(=O)(O)OP(=O)(O)OC[C@H]3O[C@@H](n4cnc5c(N)ncnc54)[C@H](O)[C@@H]3O)c2cc1C [FAD] | These results suggest that D-lactate dehydrogenase from C. glutamicum contains FAD as a bound cofactor | 
2 | Dld (Cg1027), quinone-dependent D-lactate dehydrogenase (Corynebacterium glutamicum ATCC 13032) (protein) MTQPGQTTTTSHEAIDAFKRIVGDEHVLTSERATMPFSKGYRFGGGPVFAVVRPGTLVEMWRALQVSVDNNLIVIPQASNTGLTGGSGPGFQDYDRPIVIISTHRIDEVHLINDAREAISLAGTPLTHLTDALAKHQREPHSVIGSTSIGASVIGGIANNSGGSQIRKGPAFTREAIFARVNDDGKVELVNHLGISLGDDPEVALDRLQRGEWSPEDVTPAPEDSNETEYAEHLRKIVPSPARYNANPEYLFEASGSAGKLMVFAVRTRTFPREVHPTVFYIGTNNTHELEEIRRLFLEADMPLPISGEYMGRSAFDLAEKYGKDTFVFLKFMSPALQTRMFSFKTWANGLFSKIPGIGPTFADTVSQAMFSVLPNQLPKRMMEYRNRFEHHLLLTVSESQKAASEKMLKEFFAEPEHTGEFFICTSDEEKSASLNRFGAASAATRYAALKRRHIAGLIPIDVALRRDDWNWLEVLPEEIDDQLEVKAYYGHFFCHVMHQDYVAKQGVDLEALHDRIQHLLEERGAKLPAEHNYGRIYKLPESMEEHFKELDPTNTFNAGIGGTSPHKDWA |  | 610
